Source: the NIST ThermoML archive (doi:10.1021/je0501843)

Test: molar heat capacity at constant volume; wn = mass fraction of the nth substance listed
Settings: Fluid (supercritical or subcritical phases), Vacuum adiabatic calorimetry, w1 = 0.5001

FC(F)C(F)(F)F [pentafluoroethane] + FCF
Settings | molar heat capacity at constant volume [J/K/mol]
348 K, 6505 kPa | 75.76
348 K, 9225 kPa | 72.31
348 K, 14528 kPa | 69.08
349 K, 5380 kPa | 96.64
349 K, 6732 kPa | 76.89
349 K, 9535 kPa | 72.88
349 K, 14929 kPa | 70.2
350 K, 5486 kPa | 95.02
350 K, 5543 kPa | 91.24
350 K, 5720 kPa | 84.88
350 K, 6957 kPa | 76.37
350 K, 9844 kPa | 72.65
350 K, 15331 kPa | 69.99
351 K, 5591 kPa | 91.71
351 K, 5661 kPa | 90.24
351 K, 5866 kPa | 81.35
351 K, 7184 kPa | 75.16
351 K, 10153 kPa | 72.45
351 K, 15729 kPa | 68.92
352 K, 5697 kPa | 89.08
352 K, 5778 kPa | 87.68
352 K, 5877 kPa | 87.6
352 K, 6013 kPa | 80.15
352 K, 7411 kPa | 74.15
352 K, 10462 kPa | 72.57
352 K, 16128 kPa | 68.79
353 K, 5802 kPa | 88.36
353 K, 5898 kPa | 87.13
353 K, 6010 kPa | 87.42
353 K, 6163 kPa | 80.29
353 K, 7640 kPa | 75.09
353 K, 10771 kPa | 72.4
353 K, 16529 kPa | 69.17
354 K, 5907 kPa | 87.38
354 K, 6017 kPa | 86.01
354 K, 6144 kPa | 86.89
354 K, 6312 kPa | 80.47
354 K, 7867 kPa | 74.78
354 K, 11082 kPa | 72.54
354 K, 16929 kPa | 68.92
355 K, 6013 kPa | 85.59
355 K, 6136 kPa | 84.29
355 K, 6277 kPa | 85.22
355 K, 6460 kPa | 78.25
355 K, 8099 kPa | 73.81
355 K, 11393 kPa | 71.62
355 K, 17330 kPa | 68.05
356 K, 6119 kPa | 85.68
356 K, 6256 kPa | 84
356 K, 6409 kPa | 84.29
356 K, 6610 kPa | 77.58
356 K, 8331 kPa | 73.96
356 K, 11703 kPa | 71.68
356 K, 17728 kPa | 68.48
357 K, 6227 kPa | 86.16
357 K, 6375 kPa | 83.21
357 K, 6544 kPa | 84.6
357 K, 6762 kPa | 78.59
357 K, 8563 kPa | 73.79
357 K, 12015 kPa | 72.2
357 K, 18129 kPa | 68.93
358 K, 6332 kPa | 84.37
358 K, 6496 kPa | 82.34
358 K, 6679 kPa | 84.32
358 K, 6913 kPa | 78.26
358 K, 8795 kPa | 73.5
358 K, 12328 kPa | 72.12
358 K, 18529 kPa | 68.62
359 K, 6438 kPa | 82.91
359 K, 6616 kPa | 81.68
359 K, 6814 kPa | 82.54
359 K, 7064 kPa | 76.43
359 K, 9028 kPa | 72.9
359 K, 12639 kPa | 71.57
359 K, 18928 kPa | 68.27
360 K, 6544 kPa | 82.44
360 K, 6737 kPa | 80.97
360 K, 6948 kPa | 82
360 K, 7219 kPa | 76.78
360 K, 9258 kPa | 72.64
360 K, 12952 kPa | 70.73
361 K, 6650 kPa | 82.84
361 K, 6858 kPa | 80.53
361 K, 7085 kPa | 81.72
361 K, 7368 kPa | 77.24
361 K, 9493 kPa | 73.35
361 K, 13265 kPa | 71.22
362 K, 6758 kPa | 82.74
362 K, 6980 kPa | 80.56
362 K, 7222 kPa | 81.91
362 K, 7523 kPa | 75.41
362 K, 9726 kPa | 73.82
362 K, 13581 kPa | 70.53
363 K, 6864 kPa | 81.25
363 K, 7101 kPa | 80.13
363 K, 7357 kPa | 81.64
363 K, 7676 kPa | 75.63
363 K, 9958 kPa | 73.52
